Assay: Pharmacokinetic parameters for Orlistat evaluated after of oral administration of Orlistat capsules.
Assay type: ADME, organism-based
Details: human, in vivo, dosed compound id 42, dosed compound name ORLISTAT, tissue Plasma

- half-life: 1 to 2 h
- fraction unbound (read-out: Protein binding): 0.01 to 0.99
SMILES: CCCCCCCCCCC[C@@H](C[C@@H]1OC(=O)[C@H]1CCCCCC)OC(=O)[C@H](CC(C)C)NC=O [ORLISTAT]
